pIC50: −log10 of the molar value. Counter-ions that a name gives are not always drawn. Like-named read-outs stand apart in the source and are kept apart here.
Columns and labels:
[1] = target: T1, IGF1R (Homo sapiens, UniProt P08069); experiment: Inhibition of IGF-1R (IC50): IGF1-stimulated IGF1R autophosphorylation in human tumour cells, Capture-ELISA or LUMINEX; format: cell-based; settings: human tumour cells expressing IGF1R (for example MCF-7 or Calu-6), 45 min pre-treatment, IGF1 stimulation 5 min; for IC50: read-out: IC50 (μM), IGF1R
T1 construct: endogenous in cells
T1 sequence (P08069 31-1367): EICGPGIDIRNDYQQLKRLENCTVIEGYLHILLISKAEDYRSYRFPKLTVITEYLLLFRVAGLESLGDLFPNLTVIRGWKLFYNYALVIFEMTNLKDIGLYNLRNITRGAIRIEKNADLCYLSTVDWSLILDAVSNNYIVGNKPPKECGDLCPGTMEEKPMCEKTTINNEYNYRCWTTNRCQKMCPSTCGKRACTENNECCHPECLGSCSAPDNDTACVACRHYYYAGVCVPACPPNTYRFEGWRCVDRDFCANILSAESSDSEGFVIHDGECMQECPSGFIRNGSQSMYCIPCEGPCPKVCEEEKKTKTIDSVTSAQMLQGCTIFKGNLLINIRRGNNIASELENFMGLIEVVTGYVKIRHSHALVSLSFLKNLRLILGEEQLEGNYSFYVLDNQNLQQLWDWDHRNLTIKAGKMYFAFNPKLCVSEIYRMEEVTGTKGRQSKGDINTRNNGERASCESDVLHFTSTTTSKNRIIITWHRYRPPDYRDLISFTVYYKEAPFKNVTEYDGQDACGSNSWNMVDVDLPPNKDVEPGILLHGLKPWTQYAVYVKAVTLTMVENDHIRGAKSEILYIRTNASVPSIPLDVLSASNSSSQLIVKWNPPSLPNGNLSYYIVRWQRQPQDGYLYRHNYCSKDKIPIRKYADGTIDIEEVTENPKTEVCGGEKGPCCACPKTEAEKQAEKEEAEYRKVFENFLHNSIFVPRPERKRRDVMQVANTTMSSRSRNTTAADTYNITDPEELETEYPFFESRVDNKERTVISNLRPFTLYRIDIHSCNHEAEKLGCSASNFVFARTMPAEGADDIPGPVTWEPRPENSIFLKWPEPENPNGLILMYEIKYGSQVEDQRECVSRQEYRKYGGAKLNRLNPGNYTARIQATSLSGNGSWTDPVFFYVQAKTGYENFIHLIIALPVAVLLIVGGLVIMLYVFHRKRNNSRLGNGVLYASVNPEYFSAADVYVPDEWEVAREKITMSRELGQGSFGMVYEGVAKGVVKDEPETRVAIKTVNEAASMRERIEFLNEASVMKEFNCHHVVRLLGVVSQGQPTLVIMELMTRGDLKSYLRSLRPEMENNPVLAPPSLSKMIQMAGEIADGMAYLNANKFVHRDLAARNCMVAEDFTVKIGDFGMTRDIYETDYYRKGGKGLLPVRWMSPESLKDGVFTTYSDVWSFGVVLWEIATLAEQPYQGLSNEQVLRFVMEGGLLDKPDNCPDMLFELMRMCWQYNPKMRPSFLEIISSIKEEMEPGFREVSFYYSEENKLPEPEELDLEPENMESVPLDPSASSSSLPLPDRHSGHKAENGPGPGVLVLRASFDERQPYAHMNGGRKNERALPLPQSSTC
Experimental: Cultivated human tumour cells which express the IGF1 receptor (IGF1R) (for example MCF-7 or Calu-6) are stimulated using human IGF1, the natural ligand of IGF1R. The stimulation induces autophosphorylation of tyrosine residues in the cytoplasmatic IGF1R domain, which triggers signal transduction cascades, which result in apoptosis inhibition and cell proliferation.
The amount of phosphorylated IGF1R is determined by a receptor-specific Capture-ELISA or an analogous LUMINEX assay. The IGF1R from cell lysates is bound to a 96-well ELISA plate or LUMINEX beads (“capturing”) by means of a specific antibody, and the tyrosine phosphorylation is detected using a biotin-labelled anti-phosphotyrosine antibody and a streptavidin peroxidase conjugate by a chemoluminescence method or by means of a fluorescence-labelled anti-phosphotyrosine antibody, In order to determine the activity of kinase inhibitors, cells are pre-treated with increasing concentrations of these compounds for 45 min and subsequently stimulated using IGF1 for 5 min. As internal control, the biological activity of the ligand IGF1 is checked and a concentration series of an IGF1R reference inhibitor measured.

SMILES	melting point	IC50 [1]	other results
COc1cccc(-c2cc3c(NCCCN(C)C)ccnc3[nH]2)c1 (as salt: hydrochloride) (hydrate or solvate) [Compound 15]	257 to 258 °C	–	–
C#CCCCCNc1ccnc2[nH]c(-c3ccc(OC)cc3)cc12 (as salt: hydrochloride) (hydrate or solvate) [Compound 20]	118 to 120 °C	–	–
COc1cc(-c2cc3c(Nc4cnc5ccccc5c4)ccnc3[nH]2)cc(OC)c1OC (as salt: hydrochloride) [Compound 1, quinolin-3-yl-[2-(3,4,5-trimethoxyphenyl)-1H-pyrrolo[2,3b]pyridin-4-yl]amine]	227 to 228.5 °C	–	–
COc1cc(-c2cc3c(Nc4ccc(F)c(Cl)c4)ccnc3[nH]2)cc(OC)c1OC (as salt: hydrochloride) [Compound 5]	267.5 to 269 °C	–	–
COc1cccc(-c2cc3c(Nc4ccc(F)c(Cl)c4)ccnc3[nH]2)c1 (as salt: hydrochloride) [Compound 6]	164 to 165 °C	–	–
COc1cccc(-c2cc3c(NCCCn4ccnc4)ccnc3[nH]2)c1 (as salt: hydrochloride) [Compound 12]	161 to 162 °C	–	–
COc1cccc(-c2cc3c(NCc4ccccc4)ccnc3[nH]2)c1 (as salt: hydrochloride) [Compound 14]	117 to 119 °C	–	–
COc1ccc(CNc2ccnc3[nH]c(-c4ccc(OC)cc4)cc23)cc1 (as salt: hydrochloride) [Compound 16]	196 to 197 °C	–	–
COc1cccc(-c2cc3c(NCCn4cccc4)ccnc3[nH]2)c1 (as salt: hydrochloride) [Compound 17]	218 to 219 °C	–	–
COc1cc(-c2cc3c(Nc4cnc5ccccc5c4)ccnc3[nH]2)cc(OC)c1OC [Compound 1, quinolin-3-yl-[2-(3,4,5-trimethoxyphenyl)-1H-pyrrolo[2,3b]pyridin-4-yl]amine]	–	–	pIC50 ([1]; read-out: concentration at which the substance inhibits the kinase IGF-1R to the extent of 50%): 4.85
COc1cc(-c2cc3c(Nc4cccnc4)ccnc3[nH]2)cc(OC)c1OC [Compound 2]	–	0.76 µM	–
COc1ccc(Nc2ccnc3[nH]c(-c4cc(OC)c(OC)c(OC)c4)cc23)cc1N1CCN(C)CC1 [Compound 3]	–	0.99 µM	–
COc1cc(-c2cc3c(Nc4cccc(F)c4)ccnc3[nH]2)cc(OC)c1OC [Compound 4]	80 to 81 °C	0.86 µM	–
COc1cc(-c2cc3c(Nc4cnccn4)ccnc3[nH]2)cc(OC)c1OC [Compound 7]	–	0.76 µM	–
COc1cc(-c2cc3c(NCc4cccnc4)ccnc3[nH]2)cc(OC)c1OC [Compound 8]	–	0.93 µM	–
COc1cc(-c2cc3c(NCCc4cccnc4)ccnc3[nH]2)cc(OC)c1OC [Compound 9]	–	1.2 µM	–
COc1cc(-c2cc3c(NCCc4ccccn4)ccnc3[nH]2)cc(OC)c1OC [Compound 10]	–	1.4 µM	–
COc1cc(-c2cc3c(Nc4cccc(C#N)c4)ccnc3[nH]2)cc(OC)c1OC [Compound 11]	–	1.6 µM	–
COc1cccc(-c2cc3c(NCc4ccccc4)ccnc3[nH]2)c1 [Compound 14]	–	10 µM	–
COc1ccc(CNc2ccnc3[nH]c(-c4ccc(OC)cc4)cc23)cc1 [Compound 16]	–	11 µM	–
C#CCCCCNc1ccnc2[nH]c(-c3ccc(OC)cc3)cc12 [Compound 20]	–	9.9 µM	–
COc1ccc(CNc2ccnc3[nH]c(-c4cccc(OCCCc5ccccc5)c4)cc23)cc1 [Compound 23]	164 to 165 °C	–	–

SMILES	melting point	IC50 [1]	other results
c1ccc(CCCOc2cccc(-c3cc4cccnc4[nH]3)c2)cc1 [Compound 30]	128 to 129 °C	–	–
COc1ccc(CNc2ccnc3[nH]c(-c4cccc(OCc5ccccc5)c4)cc23)cc1 [Compound 32]	218 to 219 °C	–	–
COc1cccc(-c2c[nH]c3ccnc(Cl)c23)c1 [Compound 46]	159.5 to 160 °C	–	–
COc1cccc(-c2cn(CCCNC(=O)c3ccccc3C(=O)O)c3ccnc(Cl)c23)c1 [Compound 50]	122 to 124 °C	–	–
COc1cccc(-c2c[nH]c3ccnc(Nc4ccccn4)c23)c1 [Compound 53]	> 299 °C	–	–
Clc1nccc2[nH]cc(-c3cccc(OCc4ccccc4)c3)c12 [Compound 56]	156 to 158 °C	–	–
COc1cccc(-c2c[nH]c3ccnc(NCc4cccnc4)c23)c1 [Compound 62]	80 °C (dec.)	–	–
COc1cccc(-c2c[nH]c3ccnc(Nc4cccnc4)c23)c1 [Compound 63]	177 to 178 °C	–	–
NCCCCn1cc(-c2cccc(OCc3ccccc3)c2)c2c(N)nccc21 [Compound 68]	–	20 µM	–
NCCCCCn1cc(-c2cccc(OCc3ccccc3)c2)c2c(N)nccc21 [Compound 69]	75 to 78 °C	5.7 µM	–
c1ccc(COc2cccc(-c3cc4cnccc4[nH]3)c2)cc1 [Compound 70]	168 to 170 °C	–	–
NCCCn1cc(-c2cccc(OCc3ccccc3)c2)c2c(N)nccc21 [Compound 71]	–	4.8 µM	–
NCCn1cc(-c2cccc(OCc3ccccc3)c2)c2cnccc21 [Compound 72]	–	25 µM	–
NCC1CC(n2cc(-c3cccc(OCc4ccccc4)c3)c3c(N)nccc32)C1 (stereo not drawn) [Compound 73]	–	0.91 µM	–
COc1ccc(-c2cc3cnccc3[nH]2)cc1 [Compound 75]	205 to 207 °C	–	–
COc1cccc(-c2c[nH]c3cc(Cl)ncc23)c1 [Compound 77]	211 to 212 °C	–	–
COc1cccc(-c2cn(CCNC(=O)c3ccccc3C(=O)O)c3cc(Cl)ncc23)c1 [Compound 78]	160 °C (dec.)	–	–
COc1cccc(-c2cn(CCCNC(=O)c3ccccc3C(=O)O)c3cc(Cl)ncc23)c1 [Compound 79]	100 to 101 °C	–	–
COc1cccc(-c2cn(C3CC(CNC(=O)c4ccccc4C(=O)O)C3)c3cc(Cl)ncc23)c1 (stereo not drawn) [Compound 80]	177 to 180 °C	–	–
COc1cccc(-c2cn(CCCCCNC(=O)c3ccccc3C(=O)O)c3cc(Cl)ncc23)c1 [Compound 82]	97 to 99 °C	–	–
Clc1cc2[nH]cc(-c3cccc(OCc4ccccc4)c3)c2cn1 [Compound 83]	225 to 228.5 °C	–	–

From US8859581B2, “Azaheterocyclic compounds as kinase inhibitors” (Merck Patent GmbH, priority 2005, dated 2014)
